Laboratory results published in patent US8871812B2, “Therapeutic regimen comprising PEG-interferon, ribavirin and VX-950 for the treatment of hepatitis” (priority 2008, dated 2014).
Marks after values point to notes of the source that are not given here.

How the values were obtained:
[1] = system: HCV genotype 1; assay: Phase 2 studies PROVE1 and PROVE2: sustained virologic response; format: in vivo, human; conditions: treatment-naïve genotype 1 patients
[2] = system: genotype 1 hepatitis C; assay: Phase 1b 14-day study of VX-950 alone or with peginterferon alfa-2a, followed by peginterferon alfa-2a/ribavirin: HCV RNA; format: in vivo, human
Source text: (§1) This study was designed to provide information on the kinetics of HCV following treatment with VX-950 and peginterferon alfa-2a administered over 14 days.
(§2) This study randomized twenty treatment-naïve patients with chronic genotype 1 hepatitis C infection to three dosing arms (Table 6). At the completion of the 14-day study, 19 of 20 patients chose to begin peginterferon alfa-2a/ribavirin, starting within 5 days of completing the 14-day dosing period; as the other one declined to take the combination of Peg-IRN-2a and ribavirin. Clinic visits were conducted at the discretion of the investigators, after completion of the 1-week and 12-week study-mandated follow-up visits. Nineteen patients have been followed through 24 weeks after the completion of the study dosing. After discussion with the treating physicians, ten (4 in VX-950 and 6 in VX-950/peginterferon alfa-2a) patients stopped peginterferon alfa-2a/ribavirin treatment at 24 weeks.

[3] = system: WT HCVpro; assay: IFN dependent gene expression / IFNβ promoter activity in Sendai virus infected Huh7 cells; format: cell-based
Source text: IFNβ promoter activity decreases in response to Sendai virus stimulation in the presence of WT HCVpro.

[4] = human, in vivo
[5] = system: AST (aspartate aminotransferase); assay: AST level upon administration of VX-950; format: in vivo
Source text: ALT is an enzyme that is present in liver cells; when liver cells are damaged or inflamed, ALT leaks from the cell into the blood. Blood ALT levels are useful as a marker of liver inflammation or damage.

[6] = C208 Phase 2 study: pharmacokinetics of TVR in plasma; format: in vivo, human; conditions: for Cmin, mean ± SD: Week 8
Procedure: (§3) Assessment of virologic breakthrough (defined as a >1-log 10 increase in HCV RNA from nadir, or HCV RNA>100 IU/mL in subjects whose HCV RNA had previously become undetectable [<10 IU/mL] at all assessment timepoints) was performed. Pharmacokinetics and viral dynamics were assessed by pre-defined serial measurements of plasma concentrations of TVR and HCV RNA, respectively, from baseline to Week 12. Pharmacokinetic analysis of TVR was performed using non-compartmental methods for data from full pharmacokinetic profiles. A viral dynamics model, which included fixed effects for treatment and random effects for clearance, drug effect, drop and death rate in infected cells with unstructured variance covariance matrix, was also constructed. Safety and tolerability were assessed by monitoring adverse events (AEs), laboratory abnormalities and cardiovascular parameters.

[7] = system: HCV genotype 1; assay: C208 Phase 2 study of telaprevir q8h or q12h with peginterferon alfa-2a or alfa-2b and ribavirin: HCV RNA; format: in vivo, human; conditions: for RVR (subjects with undetectable HCV RNA, <10 IU/mL, at week 4): listed as TVR
Procedure: Background: Study 0208 is an ongoing open-label, randomized Phase 2 study of telaprevir (TVR) administered q8h or q12h in combination with peginterferon-alfa-2a (peginterferon-alfa-2a) or peginterferon-alfa-2b and ribavirin (T/PR) in treatment-naïve subjects with HCV genotype 1 infection. We report the results of an interim analysis conducted at week 12 of treatment.
Subjects in all arms received T/PR treatment for 12 weeks, and will subsequently receive either 12 or 36 additional weeks of PR based on rapid virologic response (RVR) criterion. Subjects who met the definition of viral breakthrough (≧1-log increase in HCV RNA above nadir) discontinued TVR dosing and will complete 48 weeks of PR. An intent-to-treat analysis was performed when all treated subjects had completed week 4 of treatment or had discontinued earlier than week 4. The analysis also assessed all treatment or TVR dosing discontinuations including subjects who discontinued beyond week 4, up to the time of data cutoff. The proportion of subjects with HCV RNA below the limit of detection (TaqMan assay LOD 10 IU/mL) at week 4 (RVR) is reported.
C208 is an ongoing, open-label, randomized, multicenter, Phase 2 exploratory study. Adult, treatment-naïve subjects with chronic HCV genotype 1 infection were enrolled, including subjects with bridging fibrosis. Inclusion criteria were consistent with those used in prior HCV studies. Subjects received 12 weeks of T/PR, followed by either 12 or 36 additional weeks of PR based on extended rapid virologic response (RVR) criterion (FIG. 1). Subjects with HCV RNA>1000 IU/mL at Week 4, 6 or 8 were required to discontinue TVR dosing and complete 48 weeks of PR.
An interim intent-to-treat (ITT) analysis was performed and is presented in this report, which includes data obtained for all subjects randomized had completed week 12 of treatment or had discontinued earlier. The primary efficacy endpoint was the proportion of subjects with HCV RNA below the limit of detection (LOD, 10 IU/mL) at different timepoints throughout the first 12 weeks of dosing. HCV RNA levels were measured using the TAQMAN™ HCV RNA assay v2.0 (Roche Molecular Systems Inc., Branchburg, N.J., U.S.A.).
as §3

[8] = system: WT-HCV protease-SEAP; conditions: SCID mice expressing WT-HCV protease-SEAP; see WO 2005/025517; cited from earlier work
[9] = set-up: species or system human; conditions: in vivo
Source text: as §1, §2

[10] = 1-week F/U, on-study, Peg-IFN-2a/RBV, N = 7 / 8 / 4 per group
[11] = Week 4, range across the four treatment groups

CCC[C@H](NC(=O)[C@@H]1[C@H]2CCC[C@H]2CN1C(=O)[C@@H](NC(=O)[C@@H](NC(=O)c1cnccn1)C1CCCCC1)C(C)(C)C)C(=O)C(=O)NC1CC1 [VX-950]
sustained virologic response rate, PROVE2 ([1]; 24-week TVR-containing regimen versus 48-week peginterferon and ribavirin (p=0.01)): 69%
sustained virologic response rate, PROVE1 ([1]; 24-week TVR-containing regimen versus 48-week peginterferon and ribavirin (p=0.02)): 61%
HCV RNA below limit of detection (10 IU/mL) n [2, 10]: 1 n
HCV RNA below limit of quantitation (30 IU/mL) n [2, 10]: 3 n
HCV RNA below limit of quantitation (30 IU/mL) n ([2]; 12-week F/U, on-study, Peg-IFN-2a/RBV, N = 7 / 8 / 4 per group): 6 n
Patients who achieved SVR ([2]; 14 days of VX-950 optionally with Peg-INF, followed by Peg-INF/ribavirin for additional 22 or 46 weeks): 10 of 15
Undetectable HCV RNA at 24-week off study peg-IFN-2a/RBV treatment N ([2]; N = 7 / 8 / 4 per group): 7* N
Patients with undetectable HCV RNA at week 24 ([2]; all patients who received VX-950 (alone or with peginterferon)): 15 patients
Antiviral activity ([2]; as a single agent or in combination with peginterferon alfa-2a, 14 days): rapid and profound antiviral activity
Patients who achieved SVR ([2]; at least 14 days of VX-950 (alone or with peginterferon), treated for 24 weeks in total): 7 of 10
Patients who achieved SVR ([2]; at least 14 days of VX-950 (alone or with peginterferon), treated for 48 weeks in total): 3 of 5
SVR in a patient receiving a 2 week treatment of VX-950 ([2]; in vivo): SVR was achieved
Undetectable HCV RNA at 12 weeks follow-up after stopping peg-IFN-2a/RBV ([2]; patients who stopped peg-IFN-2a/RBV at week 24): 2 of 4
IFN dependent gene expression ([3]; Sendai virus infected Huh7 cells): restores IFN dependent gene expression
IFNβ promoter activation ([3]; Sendai virus stimulation in the presence of WT HCVpro): overcomes the WT HCVpro mediated suppression of IFNβ promoter activation
overall proportion of TVR discontinuations for any reason ([4]; 4 weeks): 12%
Treatment discontinuations (all drugs), Any reason ([4]; 12 weeks): 24 (15) n (%)
Treatment discontinuations (all drugs), Due to AEs ([4]; 12 weeks): 13 (8) n (%)
AST levels [5]: decreased
Cmin, mean ± SD ([6]; TVR 750 mg q8h + Peg-IFN alfa-2a + RBV (n = 40)): 2624 ± 507 ng/mL
Cmin, mean ± SD ([6]; TVR 750 mg q8h + Peg-IFN alfa-2b + RBV (n = 42)): 2569 ± 453 ng/mL
Cmin, mean ± SD ([6]; TVR 1125 mg q12h + Peg-IFN alfa-2a + RBV (n = 40)): 2134 ± 620 ng/mL
Cmin, mean ± SD ([6]; TVR 1125 mg q12h + Peg-IFN alfa-2b + RBV (n = 39)): 2321 ± 384 ng/mL
telaprevir Cmax ([6]; in vivo): higher
telaprevir Cmin ([6]; on average, q12h versus q8h dosing schedules): lower
subjects who achieved <10 IU/mL HCV RNA [7, 11]: 67-83%
subjects who achieved <25 IU/mL HCV RNA [7, 11]: 87-96%
subjects who achieved <10 IU/mL HCV RNA ([7]; Week 12, range across the four treatment groups): 83-93%
RVR (subjects with undetectable HCV RNA, <10 IU/mL, at week 4) ([7]; arm A: TVR 750 mg q8h + Peg-IFN alfa-2a 180 μg/wk + ribavirin 1000-1200 mg/d (N 40)): 82%
number of subjects with viral breakthrough up to week 4 ([7]; arm A: TVR 750 mg q8h + Peg-IFN alfa-2a + RBV): 0
RVR (subjects with undetectable HCV RNA, <10 IU/mL, at week 4) ([7]; arm B: TVR 750 mg q8h + Peg-IFN alfa-2b 1.5 μg/kg/wk + ribavirin 800-1200 mg/d (N 42)): 71%
number of subjects with viral breakthrough up to week 4 ([7]; arm B: TVR 750 mg q8h + Peg-IFN alfa-2b + RBV): 2
RVR (subjects with undetectable HCV RNA, <10 IU/mL, at week 4) ([7]; arm C: TVR 1125 mg q12h + Peg-IFN alfa-2a 180 μg/wk + ribavirin 1000-1200 mg/d (N 40)): 85%
number of subjects with viral breakthrough up to week 4 ([7]; arm C: TVR 1125 mg q12h + Peg-IFN alfa-2a + RBV): 2
RVR (subjects with undetectable HCV RNA, <10 IU/mL, at week 4) ([7]; arm D: TVR 1125 mg q12h + Peg-IFN alfa-2b 1.5 μg/kg/wk + ribavirin 800-1200 mg/d (N 39)): 68%
number of subjects with viral breakthrough up to week 4 ([7]; arm D: TVR 1125 mg q12h + Peg-IFN alfa-2b + RBV): 1
additional breakthroughs after discontinuation of TVR ([7]; both in patients infected with genotype 1a): 2
Patients with viral breakthrough while on TVR ([7]; q8hr alfa-2a arm): 1
Patients with viral breakthrough while on TVR ([7]; q8hr alfa-2b arm): 3
Patients with viral breakthrough while on TVR ([7]; q12 hr alfa-2a arm): 2
Patients with viral breakthrough while on TVR ([7]; q12 hr alfa-2b arm): 3
Effect on elevated ALT levels [8]: ameliorates elevated ALT levels
Tolerability [9]: well tolerated
